pIC50: −log10 of the molar value. Active and inactive are the calls of the source. The rule behind the calls is not given here.
Experiments:
[1] = Toxicity in C57BL/6 mouse implanted with mouse B16-F10 cells assessed as kidney damage at 9 to 9.5 mg/kg, ip by H and E staining based analysis; type: organism-based; settings: in vivo, dose 9-9.5 mg/kg
[2] = Toxicity in C57BL/6 mouse implanted with mouse B16-F10 cells assessed as spleen damage at 9 to 9.5 mg/kg, ip by H and E staining based analysis; type: organism-based; settings: in vivo, dose 9-9.5 mg/kg
B16-F10 [3] = assay: Antitumor activity against metastatic mouse B16-F10 cells implanted in C57BL/6 mouse assessed as number of lung metastases at 4.6 to 42 mg/kg, ip administered every 3rd day for 22 days measured on day 23 by histological analysis (reference value: 223 +/- 12); type: functional; settings: dose 4.6-42 mg/kg, time 23 day
B16-F10 [4] = assay: Induction of apoptosis in mouse B16-F10 cells assessed as necrotic cells at 20 uM measured after 48 hrs by Annexin V-FITC/7-AAD staining based flow cytometric analysis relative to control; type: functional
MEF = assay: Cytotoxicity against NF2-deficient mouse MEF cells assessed as reduction in cell viability at 0.2 to 55 uM incubated for 24 hrs by alamarblue staining based analysis; type: toxicity; settings: dose 0.2-55 µM
B16-F10 [5] = assay: Induction of apoptosis in mouse B16-F10 cells assessed as necrotic cells at 10 uM measured after 48 hrs by Annexin V-FITC/7-AAD staining based flow cytometric analysis relative to control; type: functional
4T1 = assay: Cytotoxicity against mouse 4T1 cells assessed as cell survival incubated for 24 hrs by alamarblue staining based analysis; type: functional; settings: 4T1, 24 h
[6] = Toxicity in C57BL/6 mouse implanted with mouse B16-F10 cells assessed as heart damage at 9 to 9.5 mg/kg, ip by H and E staining based analysis; type: organism-based; settings: in vivo, dose 9-9.5 mg/kg
B16-F10 [7] = assay: Induction of apoptosis in mouse B16-F10 cells assessed as viable cells at 20 uM measured after 48 hrs by Annexin V-FITC/7-AAD staining based flow cytometric analysis relative to control; type: functional; settings: read-out: Activity
B16-F10 [8] = assay: Cytotoxicity against mouse B16-F10 cells assessed as cell death by measuring increase in red fluorescence at 10 uM by calcein AM/PI staining based confocal laser scanning microscopy analysis; type: functional
B16-F10 [9] = assay: Induction of apoptosis in mouse B16-F10 cells assessed as viable cells at 10 uM measured after 48 hrs by Annexin V-FITC/7-AAD staining based flow cytometric analysis relative to control; type: functional; settings: read-out: Activity
B16-F10 [10] = assay: Induction of apoptosis in mouse B16-F10 cells assessed as viable cells at 15 uM measured after 48 hrs by Annexin V-FITC/7-AAD staining based flow cytometric analysis relative to control; type: functional; settings: read-out: Activity
B16-F10 [11] = assay: Induction of apoptosis in mouse B16-F10 cells assessed as viable cells at 5 uM measured after 48 hrs by Annexin V-FITC/7-AAD staining based flow cytometric analysis relative to control; type: functional; settings: read-out: Activity
B16-F10 [12] = assay: Induction of apoptosis in mouse B16-F10 cells assessed as early apoptotic cells at 20 uM measured after 48 hrs by Annexin V-FITC/7-AAD staining based flow cytometric analysis relative to control; type: functional
B16-F10 [13] = assay: Antitumor activity against metastatic mouse B16-F10 cells implanted in C57BL/6 mouse assessed as number of lung metastases at 9 to 9.5 mg/kg, ip administered for 12 days by histological analysis (reference value: 150 +/- 7); type: functional; settings: dose 9-9.5 mg/kg, time 12 day
B16-F10 [14] = assay: Antitumor activity against metastatic mouse B16-F10 cells implanted in C57BL/6 mouse assessed as number of lung metastases at 9 to 9.5 mg/kg, ip administered for 22 days by histological analysis (reference value: 223 +/- 12); type: functional; settings: dose 9-9.5 mg/kg, time 22 day
[15] = Toxicity in C57BL/6 mouse implanted with mouse B16-F10 cells assessed as heart damage at 4.6 to 42 mg/kg, ip by H and E staining based analysis; type: organism-based; settings: in vivo, dose 4.6-42 mg/kg
B16-F10 [16] = assay: Induction of apoptosis in mouse B16-F10 cells assessed as necrotic cells at 15 uM measured after 48 hrs by Annexin V-FITC/7-AAD staining based flow cytometric analysis relative to control; type: functional
B16-F10 [17] = assay: Induction of apoptosis in mouse B16-F10 cells assessed as early apoptotic cells at 15 uM measured after 48 hrs by Annexin V-FITC/7-AAD staining based flow cytometric analysis relative to control; type: functional
[18] = Toxicity in C57BL/6 mouse assessed as change in body temperature at 37 mg/kg, ip measured for 22 days; type: organism-based; settings: in vivo, 528 h, time 22 day
[19] = Toxicity in C57BL/6 mouse implanted with mouse B16-F10 cells assessed as kidney damage at 4.6 to 42 mg/kg, ip by H and E staining based analysis; type: organism-based; settings: in vivo, dose 4.6-42 mg/kg
B16-F10 [20] = assay: Cytotoxicity against mouse B16-F10 cells assessed as inhibition of cell growth incubated for 24 hrs by alamarblue staining based assay; type: functional; settings: dose 0.28-55 µM
B16-F10 [21] = assay: Antitumor activity against metastatic mouse B16-F10 cells implanted in C57BL/6 mouse assessed as number of lung metastases at 9 to 9.5 mg/kg, ip administered for 19 days by histological analysis (reference value: 190 +/- 9); type: functional; settings: dose 9-9.5 mg/kg, time 19 day
B16-F10 [22] = assay: Antitumor activity against metastatic mouse B16-F10 cells implanted in C57BL/6 mouse assessed as number of lung metastases at 9 to 9.5 mg/kg, ip administered for 15 days by histological analysis (reference value: 175 +/- 10); type: functional; settings: dose 9-9.5 mg/kg, time 15 day
B16-F10 [23] = assay: Cytotoxicity against mouse B16-F10 cells assessed as cell survival incubated for 24 hrs by alamarblue staining based analysis; type: functional; settings: B16-F10, 24 h
[24] = Toxicity in C57BL/6 mouse assessed as effect on AST level at 37 mg/kg, ip measured for 22 days; type: organism-based; settings: in vivo, 528 h, time 22 day
[25] = Toxicity in C57BL/6 mouse assessed as body weight gain at 37 mg/kg, ip measured for 22 days; type: organism-based; settings: in vivo, 528 h, time 22 day
[26] = Toxicity in C57BL/6 mouse assessed as effect on ALT level at 37 mg/kg, ip measured for 22 days; type: organism-based; settings: in vivo, 528 h, time 22 day
[27] = Cytotoxicity against NF2-deficient mouse MEF cells assessed as cell survival incubated for 24 hrs by alamarblue staining based analysis; type: toxicity
CT26 = assay: Cytotoxicity against mouse CT26 cells assessed as cell survival incubated for 24 hrs by alamarblue staining based analysis; type: functional; settings: CT26, 24 h
[28] = Toxicity in C57BL/6 mouse assessed as effect on urea level at 37 mg/kg, ip measured for 22 days; type: organism-based; settings: in vivo, 528 h, time 22 day
[29] = Toxicity in C57BL/6 mouse implanted with mouse B16-F10 cells assessed as liver damage at 9 to 9.5 mg/kg, ip by H and E staining based analysis; type: organism-based; settings: in vivo, dose 9-9.5 mg/kg
[30] = Toxicity in C57BL/6 mouse implanted with mouse B16-F10 cells assessed as liver damage at 4.6 to 42 mg/kg, ip by H and E staining based analysis; type: organism-based; settings: in vivo, dose 4.6-42 mg/kg
B16-F10 [31] = assay: Induction of apoptosis in mouse B16-F10 cells assessed as late apoptotic cells at 5 uM measured after 48 hrs by Annexin V-FITC/7-AAD staining based flow cytometric analysis relative to control; type: functional

SMILES | Activity [1] | Activity [2] | Activity (B16-F10 [3]) | Activity (B16-F10 [4]) | Activity (MEF) | Activity (B16-F10 [5]) | pIC50 (4T1) | Activity [6] | viability at 20 µM (B16-F10 [7]) | Activity (B16-F10 [8]) | viability at 10 µM (B16-F10 [9]) | viability at 15 µM (B16-F10 [10]) | viability at 5 µM (B16-F10 [11]) | Activity (B16-F10 [12]) | Activity (B16-F10 [13]) | Activity (B16-F10 [14]) | Activity [15] | Activity (B16-F10 [16]) | Activity (B16-F10 [17]) | Activity [18] | also measured
CCOC(=O)c1c(N2C(N)=C(C#N)C(=O)/C2=C\C(=O)c2ccc(C)cc2)sc2c1CCCCC2 | Non-Toxic | Non-Toxic | 29 | 2.3% | Non-Toxic | 21.8% | 5.19 | Non-Toxic | 0.2% | Active | 1.1% | 0.1% | 35.4% | 1% | 145 | 40 | Non-Toxic | 3.3% | 0.5% | Non-Toxic | Activity [19]: Non-Toxic; Activity (B16-F10 [20]): Dose-Dependent Effect; Activity (B16-F10 [21]): 67; Activity (B16-F10 [22]): 105; pIC50 (B16-F10 [23]): 5.32; Activity [24]: Non-Toxic; Activity [25]: Toxic; Activity [26]: Non-Toxic; IC50 at 24 h [27]: > 100 µM; pIC50 (CT26): 5.13; Activity [28]: Non-Toxic; Activity [29]: Non-Toxic; Activity [30]: Non-Toxic; Activity (B16-F10 [31]): 30.4%
CCOC(=O)c1c(NC(=C\C(=O)c2ccc(OC)cc2)/C([O-])=C(\C#N)C(N)=O)sc2c1CCCC2.[K+] | Non-Toxic | Non-Toxic | ~10 | 3.8% | Non-Toxic | 14% | 5.42 | Non-Toxic | 0.3% | Active | 0.5% | 0.3% | 5.8% | 0.8% | 161 | 21 | Non-Toxic | 4.9% | 0.5% | Non-Toxic | Activity [19]: Non-Toxic; Activity (B16-F10 [20]): Dose-Dependent Effect; Activity (B16-F10 [21]): 54; Activity (B16-F10 [22]): 94; pIC50 (B16-F10 [23]): 5.62; Activity [24]: Non-Toxic; Activity [25]: Toxic; Activity [26]: Non-Toxic; IC50 at 24 h [27]: > 100 µM; pIC50 (CT26): 5.37; Activity [28]: Non-Toxic; Activity [29]: Non-Toxic; Activity [30]: Non-Toxic; Activity (B16-F10 [31]): 43.5%
COc1ccc(C(=O)/C=C2\C(=O)C(C#N)=C3NC(=O)c4c(sc5c4CCCCC5)N32)cc1 | Non-Toxic | Non-Toxic | 55 | 7.4% | Non-Toxic | 10.7% | 5.06 | Non-Toxic | 0.2% | Active | 0.3% | 0.4% | 63.2% | 0.3% | 143 | 75 | Non-Toxic | 7.2% | 0.8% | Non-Toxic | Activity [19]: Non-Toxic; Activity (B16-F10 [20]): Dose-Dependent Effect; Activity (B16-F10 [21]): 87; Activity (B16-F10 [22]): 120; pIC50 (B16-F10 [23]): 5.21; Activity [24]: Non-Toxic; Activity [25]: Toxic; Activity [26]: Non-Toxic; IC50 at 24 h [27]: > 100 µM; pIC50 (CT26): 5.03; Activity [28]: Non-Toxic; Activity [29]: Non-Toxic; Activity [30]: Non-Toxic; Activity (B16-F10 [31]): 30.8%

Reference: ChEMBL document CHEMBL5325431, “Synthesis of thieno[3,2-e]pyrrolo[1,2-a]pyrimidine derivatives and their precursors containing 2-aminothiophenes fragments as anticancer agents for therapy of pulmonary metastatic melanoma” (Eur J Med Chem, 2023)
